Reference: US11401250B2, “Photochromic compounds for use in the treatment of eye disorders” (FONDAZIONE ISTITUTO ITALIANO DI TECNOLOGIA, priority 2018, dated 2022)

Key:
[1] = Photophysical characterization (UV-Vis absorption, isomerization under blue light); format: physicochemical
Description: (§1) The Ziapin 2 molecule (FIG. 1a) in DMSO has a strong absorption peak centered at 470 nm (FIG. 1b) and a peak at 330nm, attributed respectively to the transitions n→Π* and Π→Π* of the E isomer. […] Azobenzene fluorescence is also an ideal tool for monitoring the switch behavior of photoreponsive materials, as well as the localization and photodynamics in living cells. The decrease of Ziapin 2 time-dependent fluorescence following exposure to blue light in DMSO solution (FIG. 1c) is related to the weakening of the photoluminescence of the E conformer due to the photoisomerization reaction. Time-dependent fluorescence measurements (FIG. 1d) indicate a clear “photo-switching” dynamics of azobenzene in living HEK293 cells, with estimated isomerization/relaxation degrees of 0.01 cm^2J^−1 and 0.0085s^−1. […] An analogous characterization was performed with the Ziapin 1 molecule (FIG. 1e,f).
The isomerization reaction for the compound NO2/1C6Py is not observed, since in this case the nitro-azobenzene having a push-pull configuration has a rapid thermal relaxation (>ns) which hinders the appearance of the absorption of the cis isomer in the investigated temporal regime (Bandara et al., Chem. Soc. Rev., 2012, 41, 1809-1825).

[2] = tested on: primary neurons; test: Compound localization testing by confocal microscopy (Cell Mask, Vybrant markers); format: cell-based; conditions: for coverage of the cell surface / fraction of compound located in plasma membranes and in lipid rafts: primary neurons, confocal microscopy
Description: FIG. 4: confocal microscopy images showing the localization of the Ziapin 2 molecule in the vicinity of the plasma membranes (a) and in the lipid rafts (b) of primary neurons.
FIG. 5: confocal microscopy images showing the localization of the Ziapin 1 molecule in the vicinity of the plasma membranes (a) and in the lipid rafts (b) of primary neurons.
Molecules tend to localize in cell membranes and change their conformation. […] The targeting of both molecules at the plasma membrane level was analyzed in cultures of primary neurons using specific markers for the cell membrane (Cell Mask, FIG. 4a, FIG. 5a, respectively) or for lipid rafts, membrane areas rich in cholesterol and ion channels (Vybrant, FIG. 4b, FIG. 5b, respectively).

[3] = tested on: primary neurons; test: Electrophysiology (current-clamp) on primary neurons under light stimulation; format: cell-based
Experimental: FIG. 6: electrophysiology conducted on HEK293 cells (a, b), primary neurons in the absence (c, d) or in the presence of synaptic blockers (e, f) treated with Ziapin 2 and under illumination. (a) Representative average current-clamp traces recorded from HEK293 cells incubated with DMSO 0.25% (v/v) (Ctrl; black line) or 25 μM Ziapin 2 in DMSO (gray line) and photostimulated for 20 ms (top) or 200 ms (bottom) (wavelength 470 nm, light power density of 47 mW/mm^2, shaded areas in gray). (b) Average hyperpolarization and subsequent depolarization in HEK293 cells. (c, d) Representative current-clamp traces of passive (hyperpolarization/depolarization, left) and active (action potentials, right) responses recorded from neurons incubated in DMSO 0.25% (v/v) (Ctrl; black line) or with 5 μM Ziapin 2 in DMSO (gray line) in the absence (c) or presence (e) of synaptic blockers. The duration of light stimulation (20 and 200 ms, respectively) is indicated as a shaded area (wavelength 470 nm, light power density of 20 mW/mm^2). (d, f) Quantification of the hyperpolarization (left) and depolarization (right) peak in primary neurons exposed to DMSO or Ziapin 2 in the absence (d) or presence (f) of synaptic blockers and subjected to 20 or 200 ms of light stimulation.
FIG. 7: modulation of membrane capacitance and conductance in primary neurons following light stimulation. Representative traces of capacity (a) and conductance (b) recorded in current-clamp from primary neurons incubated with 0.25% (v/v) DMSO (Ctrl; black line) or 5 μM Ziapin 2 in DMSO (gray line) in the presence of synaptic and photostimulated blockers with 20 ms (left) or 200 ms (right) (wavelength 470 nm, light power density of 20 mW/mm^2, shaded areas). (c, d) Quantification of peak capacity (c) and conductance (d) variations evoked by light stimuli of 20 and 200 ms.
FIG. 8: effect of Ziapin 1 on passive and active membrane properties in primary hippocampal neurons. […] (a) Quantification of hyperpolarization (left) and depolarization (right) in response to light stimulation for 20/200 ms. […]

[4] = tested on: HEK293 cells; test: Time-dependent fluorescence photo-switching dynamics in living HEK293 cells; format: cell-based
Experimental: FIG. 1: (a) scheme of the isomerization process of a compound according to the present invention. Absorption (b) and emission (c) spectra of the compound Ziapin 2 25 μM in DMSO. (d) photoswitching dynamics of Ziapin 2 in water, DMSO and in HEK293 cells. (e, f) absorption and photoluminescence of Ziapin 1 25 μM in DMSO (e) and evolution of the absorption peak at 470 nm by illuminating with a diode at 450 nm (f).
as §1

[5] = tested on: somatosensory cortex; test: Cortical responses evoked by light in vivo (LFP recordings after stereotaxic injection); parameters: species or system mice
Experimental: FIG. 9: cortical responses evoked by light in vivo in the somatosensory cortex of mice exposed to Ziapin 2. (a) Schematic representation of the stereotaxic injection of Ziapin 2 (200 mM in 1 μl of 10% DMSO) in the somatosensory cortex (S1ShNc, 2 mm anterior to lambda, 2 mm lateral to the midline and −723 μm ventral to the brain surface) and of the 16-fiber optic coupled microelectrode system for photostimulation and field potential recordings (LFP). (b) Representative LFP recordings evoked in the somatosensory cortex with light stimulation of 20 and 200 ms (43 mW/mm^2) in mice injected with DMSO (black line) or Ziapin 2 (gray line). The shaded areas represent light stimulation. (c) Dose-response analysis of LFPs in mice injected with DMSO (black line) or Ziapin 2 (gray line) depending on the power and duration of photostimulation.
The objective was to investigate whether the light-dependent modulation of neuronal activity observed in vitro occurred also in vivo. The electrophysiological recordings were obtained by implanting an array of 16 microelectrodes coupled to an optical fiber for photostimulation. […] The response peaked at around 200 ms following the light stimulus (FIGS. 9c and d).

Row | trans-cis isomerization reaction in UV-Vis absorption spectra ([1]; 470 nm, FIG. 18) | strong absorption peak ([1]; in DMSO, E isomer, transition n→Π*) | absorption peak ([1]; in DMSO, E isomer, transition Π→Π*) | diameter of the area of diffusion and absorption of the molecule by cortical cells ([5]; 1 μl in the somatosensory cortex, fluorescence analysis) | Compound | coverage of the cell surface [2] | fraction of compound located in plasma membranes and in lipid rafts [2] | modulation of passive and active membrane properties following light stimulation ([3]; compared with Ziapin 2) | estimated isomerization degree [4] | estimated relaxation degree [4] | localization at the lipid rafts, Ziapin 2 compared with Ziapin 1 ([2]; primary neuron cultures exposed to compound) | membrane potential response to the light stimulus ([3]; 20 or 200 ms light) | capacity and conductivity of the membrane under light stimulation compared to the values in the dark ([3]; synaptic blockers) | time of response peak following the light stimulus ([5]; LFP, somatosensory cortex) | LFP changes with respect to DMSO alone ([5]; absence of the light stimulus and highest power used (160 mW/mm^2)) | LFP response compared with DMSO ([5]; higher power densities) | cortical activity evaluated in terms of field potentials (LFP) ([5]; optical stimulation 20 and 200 ms, 472 nm laser, different intensities) | LFP response compared with animals treated with DMSO ([5]; stimulations at 25 and 43 mW/mm^2, 20 ms illumination)
1 | not observed |  |  |  | O=[N+]([O-])c1ccc(N=Nc2ccc(NCCCCCC[n+]3ccccc3)cc2)cc1 [NO2/1C6Py] |  |  |  |  |  |  |  |  |  |  |  |  | 
2 |  |  |  |  | c1cc[n+](CCCCCCNc2ccc(N=Nc3ccc(N4CCCCCC4)cc3)cc2)cc1 [Ziapin 1] | about 20% | less than 50% | lower modulation effect |  |  |  |  |  |  |  |  |  | 
3 |  | 470 nm | 330 nm | about 1 mm | c1cc[n+](CCCCCCN(CCCCCC[n+]2ccccc2)c2ccc(N=Nc3ccc(N4CCCCCC4)cc3)cc2)cc1 [Ziapin 2] | about 20% | about 70% |  | 0.01 cm^2J^−1 | 0.0085 s⁻¹ | considerably more marked | hyperpolarization is followed by a depolarization | significant decrease | around 200 ms | No significant changes | significantly higher | significant activation | significantly different
